Results reported in patent US20250346579A1, “PYRIDAZINONE COMPOUND AND PREPARATION METHOD THEREFOR, PHARMACEUTICAL COMPOSITION THEREOF, AND APPLICATION THEREOF” (CHINA PHARMACEUTICAL UNIVERSITY, priority 2021, published 2025).
Where two headings read alike, the source gives them in different places.

Molecular target: T1, PARP7 (Homo sapiens, UniProt Q7Z3E1)
T1 construct: purchased BPS Bioscience
T1 sequence (Q7Z3E1 1-657): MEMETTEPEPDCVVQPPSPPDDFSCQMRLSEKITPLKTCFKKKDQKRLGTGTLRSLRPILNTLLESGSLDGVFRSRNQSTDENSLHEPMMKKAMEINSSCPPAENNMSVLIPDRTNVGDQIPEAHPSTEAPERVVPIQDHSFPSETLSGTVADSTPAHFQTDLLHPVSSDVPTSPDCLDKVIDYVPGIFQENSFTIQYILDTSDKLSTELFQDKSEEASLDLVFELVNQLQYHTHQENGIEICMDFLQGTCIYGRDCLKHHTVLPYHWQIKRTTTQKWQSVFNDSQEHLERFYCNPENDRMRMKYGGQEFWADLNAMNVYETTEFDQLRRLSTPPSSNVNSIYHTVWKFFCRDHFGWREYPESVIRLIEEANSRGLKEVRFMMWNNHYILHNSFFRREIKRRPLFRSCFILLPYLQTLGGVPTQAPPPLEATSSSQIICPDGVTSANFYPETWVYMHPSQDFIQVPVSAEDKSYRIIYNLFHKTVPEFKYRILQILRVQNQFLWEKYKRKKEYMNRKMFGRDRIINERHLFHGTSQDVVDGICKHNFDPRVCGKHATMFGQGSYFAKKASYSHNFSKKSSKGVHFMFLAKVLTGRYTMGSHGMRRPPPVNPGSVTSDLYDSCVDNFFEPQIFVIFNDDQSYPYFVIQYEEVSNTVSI
Experiment: Inhibitory activity of compounds on PARP7 enzyme (PARP7 Chemiluminescent Assay Kit)
Assay type: biochemical
Experimental: Experimental materials: PARP7 Chemiluminescent Assay Kit, BPS Bioscience; DMSO, China National Pharmaceutical Group, Nivo, PerkinElmer.
(1) Preparation of Solutions and Buffers:
Preparation of 10×PBS: 720 mg of KH2PO4, 45 g of NaCl and 5.311 g of Na2HPO4·12H2O were weighed respectively and dissolved in 500 mL of deionized water, a system pH value was adjusted to 7.4, sterilization was performed at 121° C. for 30 min, and the system after cooling was placed at 4° C. for later use.
Preparation of 1×PBS: 10×PBS was diluted 10 times with deionized water, that is, 9 parts of deionized water was added to 1 part of 10×PBS for dilution.
Preparation of wash buffer: 1×PBS contained 0.05% Tween-20.
Preparation of 1×PARP buffer (prepared freshly before use): 10×PARP buffer was diluted 10 times with deionized water and placed on ice for later use.
(2) Preparation of Compound Working Solution Concentration:
According to test requirements, a compound to be tested is diluted with 100% DMSO to a desired concentration, and then diluted 10 times with 1×PARP buffer to prepare a 10× compound working solution.
a. 5× histone mixture was thawed on ice one day prior to the experiment;
b. preparation of 1× histone mixture: 1× histone mixture was prepared through the 5× histone mixture by using 1×PBS; and 25 μL of 1× histone mixture was taken from each well and transferred into a test well plate and incubated overnight at 4° C.;
c. 100 μL of Blocking buffer was taken from each well and added to the test well plate and incubated for 90 min at 25° C.;
d. after the incubation was completed, the liquid in the test well plate was spin-dried, and the test well plate was washed repeatedly for 3 times;
e. 2.5 μL of the compound working solution was taken from each well and added to the test well plate according to an experimental layout diagram; and 1×PARP buffer with a corresponding volume of 10% DMSO was added to positive control wells (Positive Control), and 1×PARP buffer of a corresponding volume was added to blank control wells (Blank);
f. after the enzyme was completely dissolved, an enzyme stock solution was diluted with 1×PARP buffer to 6 ng/μL;
g. 10 μL of enzyme solution was taken from each well and added to the test well plate, the blank control wells were added with the corresponding volume of 1×PARP buffer, and in which case, the enzyme amount was 60 ng per well. Note: this step needs to be performed on ice;
h. 12.5 μL of master mixture was added to each well of the test well plate (12.5 μL master mixture included 1.25 μL of 10×PARP buffer, 1.25 μL of Opti-PARP 10× Assay mixture and 10 μL of water); the test well plate was sealed and incubated at 25° C. for 60 min;
i. after the incubation was completed, the liquid in the test well plate was spin-dried, and the test well plate was washed repeatedly for 3 times;
j. Streptavidin-HRP in a kit was diluted 50 times with a Blocking buffer, 25 μL was taken from each well and added to the test well plate, and incubated at 25° C. for 30 min;
k. after the incubation was completed, the liquid in the test well plate was spin-dried, and the test well plate was washed repeatedly for 3 times;
l. ELISA ECL Substrate A and ELISA ECL Substrate B in the kit was mixed to obtain a mixed solution according to a ratio of 1:1, 50 μL of the mixed solution was added to each well of the test well plate, Nivo was used to perform Luminescence detection immediately, and a luminous value (RLU) was read; and
m. calculation of an enzyme rate: Enzyme Activity=(RLU(Sample)−RLU(Blank))/(RLU(Pos.Ctrl)−RLU(Blank))×100%; and enzyme inhibition rate=1−% Enzyme Activity, and specific results were shown in Table 1 below.

[1] = chemiluminescence, symbols defined as IC50 classes, read-out: 100 nM Inhibition Rate
[2] = summary of Table 1, read-out: enzyme inhibition IC50 values

Compound | IC50 [1] | IC50 [2]
O=C(Nc1cccc(CNc2cn[nH]c(=O)c2C(F)(F)F)c1)N1CCN(c2ncc(C(F)(F)F)cn2)CC1 [I-E-7, N-(3-(((6-oxo-5-(trifluoromethyl)-1,6-dihydropyridazin-4-yl)amino)methyl)phenyl)-4-(5-(trifluoromethyl)pyrimidin-2-yl)piperazine-1-carboxamide] | < 0.1 µM | < 0.1 µM
Cc1cnc(N2CCN(C(=O)C3CN(C[C@H](C)Nc4cn[nH]c(=O)c4C(F)(F)F)C3)CC2)nc1 [I-A-6, (S)-5-((1-(3-(4-(5-methylpyrimidin-2-yl)piperazine-1-carbonyl)azetidin-1-yl)propan-2-yl)amino)-4-(trifluoromethyl)pyridazin-3(2H)-one] | < 0.1 µM | 
C[C@@H](CN1CC(C(=O)N2CCN(c3ncc(F)cn3)CC2)C1)Nc1cn[nH]c(=O)c1C(F)(F)F [I-A-8, (S)-5-((1-(3-(4-(5-fluoropyrimidin-2-yl)piperazine-1-carbonyl)azetidin-1-yl)propan-2-yl)amino)-4-(trifluoromethyl)pyridazin-3(2H)-one] | 0.1 to 0.5 µM | 
O=C(NCCCCNc1cn[nH]c(=O)c1C(F)(F)F)N1CCN(c2ncc(C(F)(F)F)cn2)CC1 [I-E-1, N-(4-((6-oxo-5-(trifluoromethyl)-1,6-dihydropyridazin-4-yl)amino)butyl)-4-(5-(trifluoromethyl)pyrimidin-2-yl)piperazine-1-carboxamide] | < 0.1 µM | < 0.1 µM
C[C@@H](CN1CC(C(=O)N2CCN(c3cccc4c3oc3ccccc34)CC2)C1)Nc1cn[nH]c(=O)c1C(F)(F)F [I-A-12] | 0.1 to 0.5 µM | 
C[C@@H](CN1CC(C(=O)NC2CN(c3ncc(C(F)(F)F)cn3)C2)C1)Nc1cn[nH]c(=O)c1C(F)(F)F [I-A-15, (S)-1-(2-((6-oxo-5-(trifluoromethyl)-1,6-dihydropyridazin-4-yl)amino)propyl)-N-(1-(5-(trifluoromethyl)pyrimidin-2-yl)azetidin-3-yl)azetidine-3-carboxamide] | < 0.1 µM | 
C[C@@H](CN1CC(C(=O)N2CCN(c3ncccn3)CC2)C1)Nc1cn[nH]c(=O)c1C(F)(F)F [I-A-14, (S)-5-((1-(3-(4-(pyrimidin-2-yl)piperazine-1-carbonyl)azetidin-1-yl)propan-2-yl)amino)-4-(trifluoromethyl)pyridazin-3(2H)-one] | 0.1 to 0.5 µM | 
C[C@@H](CN1CC(C(=O)N2CCN(c3ncc(-c4ccc(C(F)(F)F)cc4)cn3)CC2)C1)Nc1cn[nH]c(=O)c1C(F)(F)F [I-A-2, (S)-4-(trifluoromethyl)-5-((1-(3-(4-(5-(4-(trifluoromethyl)phenyl)pyrimidin-2-yl)piperazine-1-carbonyl)azetidin-1-yl)propan-2-yl)amino)pyridazin-3(2H)-one] | 0.1 to 0.5 µM | 
C[C@@H](CN1CC(C(=O)N2CCN(c3ncc(Br)cn3)CC2)C1)Nc1cn[nH]c(=O)c1C(F)(F)F [I-A-7, (S)-5-((1-(3-(4-(5-bromopyrimidin-2-yl)piperazine-1-carbonyl)azetidin-1-yl)propan-2-yl)amino)-4-(trifluoromethyl)pyridazin-3(2H)-one] | < 0.1 µM | 
C[C@@H](CN1CC(C(=O)N2CCN(c3ccc(C(F)(F)F)cc3)CC2)C1)Nc1cn[nH]c(=O)c1C(F)(F)F [I-A-11] | 0.1 to 0.5 µM | 
C[C@@H](CN1CC(C(=O)N2CCN(c3ncc(C(F)(F)F)cn3)CC2)C1)Nc1cn[nH]c(=O)c1Cl [I-A-22, (S)-4-chloro-5-((1-(3-(4-(5-(trifluoromethyl)pyrimidin-2-yl)piperazine-1-carbonyl)azetidin-1-yl)propan-2-yl)amino)pyridazin-3(2H)-one] | 0.1 to 0.5 µM | 
O=C(C1CN(CC2(Nc3cn[nH]c(=O)c3C(F)(F)F)CC2)C1)N1CCN(c2ncc(C(F)(F)F)cn2)CC1 [I-A-24, 4-(trifluoromethyl)-5-((1-((3-(4-(5-(trifluoromethyl)pyrimidin-2-yl)piperazine-1-carbonyl)azetidin-1-yl)methyl)cyclopropyl)amino)pyridazin-3(2H)-one] | 0.1 to 0.5 µM | 
